Tests used:
Male Fisher 344 rats [1] = experiment: Liver enzyme activities, histopathology and other clinical parameters after CCl4; assay type: in vivo, rat; conditions: CCl4 120 and 1200 mg/kg; 2, 7, 16 h
Description: Animals and treatment protocol: Male Fisher 344 rats (260-280 g) obtained from Charles River Laboratories (Raleigh, N.C.) were used in all experiments. The animals were housed three to a cage. Autoclaved hardwood bedding was used in solid-bottom polycarbonate cages with filter tops. Animal rooms were maintained at 20-25° C. with 35-70% relative humidity with alternating 12-hour light and dark cycles. The rats had free access to deionized, reverse-osmosis-treated water and received autoclaved NIH 31 rodent chow (Zeigler Bros., Gardners, Pa.) ad libitum. For all experiments, rats were fasted overnight and then administered intraperitoneal injections of carbon tetrachloride in canola oil. Control rats received an equal volume of canola oil. Fasting continued throughout the experiment. […]
Serum enzyme activities of lactic acid dehydrogenase (LDH), alanine aminotransferase (ALT), alkaline phosphatase (ALP), aspartate aminotransferase (AST), sorbitol dehydrogenase (SDH), 5′-nucleotidase (5′-NT), serum concentration of total bile acids (TBA), and liver histopathology were performed, as described (Kadiiska et al., 2000, Free Radic. Biol. Med. 28:838-845). In addition, other clinical parameters such as serum albumin, total protein, total iron, total iron binding capacity, nitrite/nitrate, and urinary creatinine were determined, using standard techniques known to those in the art.

Male Fisher 344 rats [2] = experiment: Urinary 8,12-iso-iPF2α-VI by LC/MS/MS; assay type: in vivo, rat; conditions: for 8,12-iso-iPF2a-VI (by LC/MS/MS): urine
Description: (§1) Animals and treatment protocol: Male Fisher 344 rats (260-280 g) obtained from Charles River Laboratories (Raleigh, N.C.) were used in all experiments. The animals were housed three to a cage. Autoclaved hardwood bedding was used in solid-bottom polycarbonate cages with filter tops. Animal rooms were maintained at 20-25° C. with 35-70% relative humidity with alternating 12-hour light and dark cycles. The rats had free access to deionized, reverse-osmosis-treated water and received autoclaved NIH 31 rodent chow (Zeigler Bros., Gardners, Pa.) ad libitum. For all experiments, rats were fasted overnight and then administered intraperitoneal injections of carbon tetrachloride in canola oil. Control rats received an equal volume of canola oil. Fasting continued throughout the experiment. Rats were anesthetized with Nembutal (0.1 ml/100 g body weight) and 5 ml blood was removed from the dorsal aorta proximal to its bifurcation into the common iliac arteries.
(§2) Indomethacin pretreatment: The indomethacin regimen used has been previously shown to inhibit COX activity in rats by 90% (dose of 5 mg/kg s.c. 24 hours, 12 hours, and 2 hours prior to the injection of CCl4) (Jackson, 1989, J. Pharmacol. Exp. Ther. 250: 9-21). An additional booster dose was injected 8 hours after the last injection of CCl4 for the measurements performed 16 hours after treatment with CCl4.
(§3) Meclofenamic acid pretreatment: Meclofenamic acid was injected at a dose of 5 mg/kg i.p. 12 h and 2 h prior to the injection of CCl4.
(§4) Carbon tetrachloride (CCL4) treatment: Animals from each of the three dose groups (Control-canola oil, 120 mg/kg CCl4 i.p. and 1200 mg/kg CCl4 i.p.) were investigated at three time points (2, 7, and 16 hours after CCl4 injection). Indomethacin-pretreated rats were also investigated at the same three time points, and the meclofenamic acid-pretreated rats were investigated at one time point (7 hours). Each group consisted of five rats for each analysis, except the meclofenamic acid pretreatment group which consisted of six rats. Animal treatment, sample preparation, assessment of liver histology and serum enzyme activities are described elsewhere (Kadiiska et al., 2000, Free Radic. Biol. Med. 28: 838-845; Jackson, 1989, J. Pharmacol. Exp. Ther. 250: 9-21) and were carried out at NIEHS, Research Triangle Park, N.C.
Urine sample preparation: The day prior to treatment, both experimental and control animals were placed in stainless steel metabolic cages especially designed for urine collection. For Experimental Example 2, animals were placed in metabolic cages immediately after the last injection of indomethacin or meclofenamic acid. Urine was collected (in dark vials) from the animals during the following intervals: 2 to 7 hours and 7 to 16 hours after CCl4 or canola oil (controls) treatment. Urine samples from indomethacin-pretreated rats were collected from 2 to 7 hours and 7 to 16 hours after the injection of CCl4, whereas samples from meclofenamic-acid-pretreated rats were collected only from 2 to 7 hours after the injection. All urine samples were immediately frozen on dry ice and stored at −70° C.
Analysis of 8,12-iso-iPF2α-VI, which is, along with its epimer 5-epi-8,12-iso-iPF2α-VI, the most prevalent PGF-ring isoprostane in human urine, was accomplished by addition of a tetradeuterated analog, solid phase extraction and quantitation using liquid chromatography and tandem mass spectroscopy (LC/MS/MS) (Li et al., 1999, Proc. Natl. Acad. Sci. USA 96: 13381-13386). The measurements were performed at the University of Pennsylvania, Philadelphia, Pa.

Male Fisher 344 rats [3] = experiment: Plasma protein-bound 3-nitrotyrosine (HPLC-EC); assay type: in vivo, rat
Description: as §1, §4
(§5) Plasma sample preparation: Blood (5 ml) was drawn through single draw Vacutainer® needles (21 Gauge) into open Vacutainer® blood collection tubes containing heparin. The tubes were gently inverted 2-3 times for mixing and immediately placed on ice. Blood was centrifuged (2,000 rpm for 10 minutes at 4° C.) no more than 30 minutes after collection, and the plasma was collected, frozen on dry ice and stored at −70° C.
Determination of tyrosine products employed a method of sample preparation wherein tyrosine analogs were enzymatically hydrolyzed from protein without the need for sample extraction, concentration or derivatization (Henley et al., 1997, Analytical Biochem. 251: 187-195). High performance liquid chromatography was applied in conjunction with coulometric electrochemical array (HPLC-EC) detection to allow ultrasensitive determination of protein-bound 3-nitrotyrosine and 3,4-dihydroxyphenylalanine (3-hydroxytyrosine) as specific in situ biomarkers of protein exposure to reactive nitrating or oxidizing species (Henley et al., 1997, Analytical Biochem. 251: 187-195). Tyrosine and derivatives were analyzed simultaneously, with practical detection limits for tyrosine, 3-nitrotyrosine, and 3,4-Dopa being 10, 50 and 2 pmol respectively, in as little as 20 μL of sample. The measurements were conducted at the Oklahoma Medical Research Foundation (OMRF), Oklahoma City, Okla.

Male Fisher 344 rats [4] = experiment: Plasma free plus esterified 8-iso-PGF2α by GC/MS; assay type: in vivo, rat; conditions: for Free plus esterified 8-iso-PGF2a (by GC-MS): plasma
Description: as §1, §2, §3, §4, §5
Measurement of the sum of free plus esterified 8-iso-PGF2α in plasma were performed using an improved GC/MS-based analysis for the quantitation of this isoprostane in plasma. A detailed protocol for this extraction and quantitation has been published (Parker et al., 2001, Mol. Biotechnol. 18: 105-118). Measurements of the sum of free plus esterified 8-iso-PGF2α in plasma were performed at NIEHS, Research Triangle Park, N.C.

Male Fisher 344 rats [5] = conditions: cited from earlier work

## ClC(Cl)(Cl)Cl [CCl4, Carbon tetrachloride]
Male Fisher 344 rats [1]
  plasma iron concentrations and total iron binding capacity: significantly increased only at the high dose at 16 hours
  plasma nitrite/nitrate levels: significantly increased only at the high dose at all three time points
Male Fisher 344 rats [2]; CCl4 120 mg/kg i.p., 7 h
  8,12-iso-iPF2a-VI (by LC/MS/MS): 36.8 ng/mL
Male Fisher 344 rats [2]; CCl4 120 mg/kg i.p., 16 h
  8,12-iso-iPF2a-VI (by LC/MS/MS): 32.4 ng/mL
Male Fisher 344 rats [2]; CCl4 1200 mg/kg i.p., 7 h
  8,12-iso-iPF2a-VI (by LC/MS/MS): 84.3 ng/mL
Male Fisher 344 rats [2]; CCl4 1200 mg/kg i.p., 16 h
  8,12-iso-iPF2a-VI (by LC/MS/MS): 78.5 ng/mL
Male Fisher 344 rats [2]; high dose CCl4, 7 h
  increase of urinary 8,12-iso-iPF2α-VI: 17 fold
Male Fisher 344 rats [2]; high dose CCl4, 16 h
  increase of urinary 8,12-iso-iPF2α-VI: 7 fold
Male Fisher 344 rats [3]; CCl4 120 mg/kg i.p., 2 h
  3-Nitrotyrosine, bound: 0.24 µM
Male Fisher 344 rats [3]; CCl4 120 mg/kg i.p., 7 h
  3-Nitrotyrosine, bound: 0.39 µM
Male Fisher 344 rats [3]; CCl4 120 mg/kg i.p., 16 h
  3-Nitrotyrosine, bound: 0.43 µM
Male Fisher 344 rats [3]; CCl4 1200 mg/kg i.p., 2 h
  3-Nitrotyrosine, bound: 0.26 µM
Male Fisher 344 rats [3]; CCl4 1200 mg/kg i.p., 7 h
  3-Nitrotyrosine, bound: 0.42 µM
Male Fisher 344 rats [3]; CCl4 1200 mg/kg i.p., 16 h
  3-Nitrotyrosine, bound: 0.38 µM
Male Fisher 344 rats [4]; CCl4 120 mg/kg i.p., 2 h
  Free plus esterified 8-iso-PGF2a (by GC-MS): 3.07 ng/mL
Male Fisher 344 rats [4]; CCl4 120 mg/kg i.p., 7 h
  Free plus esterified 8-iso-PGF2a (by GC-MS): 1.79 ng/mL
Male Fisher 344 rats [4]; CCl4 120 mg/kg i.p., 16 h
  Free plus esterified 8-iso-PGF2a (by GC-MS): 0.93 ng/mL
Male Fisher 344 rats [4]; CCl4 1200 mg/kg i.p., 2 h
  Free plus esterified 8-iso-PGF2a (by GC-MS): 6.63 ng/mL
Male Fisher 344 rats [4]; CCl4 1200 mg/kg i.p., 7 h
  Free plus esterified 8-iso-PGF2a (by GC-MS): 4.39 ng/mL
Male Fisher 344 rats [4]; CCl4 1200 mg/kg i.p., 16 h
  Free plus esterified 8-iso-PGF2a (by GC-MS): 1.68 ng/mL
Male Fisher 344 rats [4]; high dose CCl4, 2 h
  increase of free plus esterified plasma 8-iso-PGF2α: 15 fold
Male Fisher 344 rats [4]; high dose CCl4, 7 h
  increase of free plus esterified plasma 8-iso-PGF2α: 10 fold
Male Fisher 344 rats [4]; high dose CCl4, 16 h
  increase of free plus esterified plasma 8-iso-PGF2α: 4 fold
Male Fisher 344 rats [5]; CCl4 120 and 1200 mg/kg, 2, 7, 16 h
  serum liver enzyme activities: significant increase in many of the enzyme activities studied was observed at the high dose at 2 hours and for both doses at 7 and 16 hours
Male Fisher 344 rats [5]; both doses of CCl4, each time point
  hepatic effects, histology: diffuse hepatocyte degeneration and infiltration of inflammatory cells associated with necrosis
